The results in this text go back to US8685469B2, “In vitro anti-sickling activity of betulinic acid, oleanolic acid and their derivatives” (University of KwaZulu-Natal, priority 2009, dated 2014).

This test deals with sickled blood cells (SS blood erythrocytes). As to the kind of experiment: In vitro anti-sickling activity, Emmel test on SS blood. As to conditions: for Emmel Test Result: 2% sodium metabisulphite, 2 hours anaerobic, compounds diluted in NaCl 0.9%. It is filed as cell-based. How it is done:
Blood samples were collected from “Centre de Medecine Mixte et d'Anémie SS” located in Kinshasa, Democratic Republic of Congo (DRC). The blood samples were first characterised by Hb electrophoresis on cellulose acetate gel, in order to confirm their SS nature, as previously reported by Mpiana et al., 2007^6. Confirmed SS blood samples were refrigerated at ˜4° C., and used for Emmel test.
A drop of physiological solution was put on a glass slide and a drop of SS blood was added on the physiological solution. One drop of 2% sodium metabisulphite solution was added on the slide glass which was hermetically covered using a cover glass with melted paraffin wax and kept covered for 2 hours in order to accelerate the sickling of the blood. After 2 hours in anaerobic conditions, the blood sample became deoxygenated and adopted sickle shape. Assay was observed under an optical microscope and the number of observed erythrocytes was determined using Thomas' cell (Courtejoie, J. and Hartaing, I, 1992)^7.
SS blood samples were contacted at different concentrations with diluted samples of the compounds (8), (9), (10), and (11) using physiological solution (NaCl 0.9%) as dilution solvent, according to Emmel's test procedure as reported above and optical measurements were taken.
Pictures were obtained with an optical microscope (motic). In order to convert the photonic micrograph image into a digital image, a Canon digital camera (Zoom X6) was used to digitize micrographs using Motic Images 200 version 1.3 software, on Windows XP. Thomas' cell was used to observe the number of erythrocytes. The results of the in vitro anti-sickling activity of betulinic acid (8), 3-acetoxybetulinic acid (11), oleanolic acid (9) and maslinic acid (10) are shown in Table 1.

On to `CC1(C)CC[C@]2(C(=O)O)CC[C@]3(C)C(=CC[C@@H]4[C@@]5(C)CC[C@H](O)C(C)(C)[C@@H]5CC[C@]43C)[C@@H]2C1` [DS/FS/1, Oleanolic acid], for which the “Emmel Test Result” value is “+ (+ = 10 to 50% normalisation of sickled blood cells.)”. Further, the “normalisation of sickled blood cells” value (Emmel test, in vitro) was 10-50%.
On to `CC1(C)CC[C@]2(C(=O)O)CC[C@]3(C)C(=CC[C@@H]4[C@@]5(C)C[C@@H](O)[C@H](O)C(C)(C)[C@@H]5CC[C@]43C)[C@@H]2C1` [DS/FS/2, Maslinic acid], for which the “Emmel Test Result” value is reported as “+++ (+++ = >70% normalisation of sickled blood cells.)”.
On to `C=C(C)[C@@H]1CC[C@]2(C(=O)O)CC[C@]3(C)[C@H](CC[C@@H]4[C@@]5(C)CC[C@H](O)C(C)(C)[C@@H]5CC[C@]43C)[C@@H]12` [DS/10/C/A, Betulinic acid], for which the “Emmel Test Result” value is listed as “+++ (+++ = >70% normalisation of sickled blood cells.)”.
For `C=C(C)[C@@H]1CC[C@]2(C(=O)O)CC[C@]3(C)[C@H](CC[C@@H]4[C@@]5(C)CC[C@H](OC(C)=O)C(C)(C)[C@@H]5CC[C@]43C)[C@@H]12` [DS/10/C/Ab, 3-acetoxybetulinic acid], the “Emmel Test Result” value is given as “+++ (+++ = >70% normalisation of sickled blood cells.)”.
